# Test results reported in patent publication US6326020A (priority 1998, dated 2001).
# Assays:
# thermal nociception = conditions: rat, in vivo
# sciatic nerve [1] = system: sciatic nerve; parameters: species or system Sprague-Dawley rat; conditions: rat, in vivo
# sciatic nerve [2] = system: sciatic nerve; parameters: species or system Sprague-Dawley rat; conditions: rat, in vivo; remark: listed apart in the source
# sciatic nerve [3] = system: sciatic nerve; parameters: species or system Sprague-Dawley rat; conditions: rat, in vivo; remark: listed apart in the source
# sciatic nerve [4] = system: sciatic nerve; parameters: species or system Sprague-Dawley rat; conditions: rat, in vivo; remark: listed apart in the source
# sciatic nerve [5] = conditions: rat, in vivo
# nerve block = system: nerve block; parameters: species or system human; conditions: in vivo
smiles,measurement,setting,value
"CCCCN1CCCCC1C(=O)Nc1c(C)cccc1C (centres unmarked) [Bupivacaine, bupivacaine]","Duration of block, thermal nociception",thermal nociception,104 ± 18 min
same,"Duration of Effective Block, EPT",sciatic nerve [1],190 ± 56 min
same,"Duration of Effective Block, PPR",sciatic nerve [2],162 ± 44 min
same,"Duration of Effective Block, Hop",sciatic nerve [3],143 ± 48 min
same,"""Missed block"" rate",sciatic nerve [4],0%
same,Modalities impaired,sciatic nerve [4],all four modalities were impaired in all rats
same,Rate of successful block,sciatic nerve [4],100%
"COc1cc(CNC(=O)CCCC/C=C/C(C)C)ccc1O [capsaicin, trans-8-methyl-N-vanillyl-6-nonenamide]","Dose required for prolonged block with TTX, fold below threshold for block from the vanilloid alone",sciatic nerve [5],more than 5 fold
same,Duration of prolonged block,sciatic nerve [5],2 days
same,Duration of prolonged block,nerve block,3 to 4 days
Oc1cc2c(cc1O)CN(C(=S)NCCc1ccc(Cl)cc1)CCC2 [capsazepine],Reversal of established block from vanilloid-site 1 toxin combination,sciatic nerve [5],reverses established block
C=C(C)C12CC(C)C34OC(Cc5ccccc5)(OC1C3C=C(COC(=O)Cc1ccc(O)c(OC)c1)CC1(O)C(=O)C(C)=CC14)O2 (centres unmarked) [resiniferotoxin],"Dose required for prolonged block with TTX, fold below threshold for block from the vanilloid alone",sciatic nerve [5],more than 5 fold
same,Duration of prolonged block,sciatic nerve [5],2 days
same,Duration of prolonged block,nerve block,3 to 4 days
